Measurements taken from ChEMBL document CHEMBL6092217 (Eur J Med Chem, 2024).
Active and inactive are the calls of the source. No cut-off for these calls is given here.

Assays:
Tubulin (Homo sapiens) = Tubulin (Homo sapiens) (UniProt P68371+Q9H4B7+P0DPH7+P68366+Q13509+Q71U36+P04350+Q3ZCM7+P07437+P68363+Q9BQE3+Q6PEY2+Q13885+Q9BVA1+Q9BUF5); assay: Disruption of microtubule network in human HT-29 cells incubated for 8 hrs by DAPI staining based confocal microscopic analysis; format: cell-based; settings: dose 50-200 nM
HT-29 [1] = assay: Inhibition of colony formation in human HT-29 cells; format: functional, cell-based; settings: dose 25-200 nM
HT-29 [2] = assay: Induction of apoptosis in human HT-29 cells assessed as upregulation of Bax level at 50 to 200 nM incubated for 24 hrs by Western blot analysis; format: functional, cell-based; settings: dose 50-200 nM
HUVEC = assay: Inhibition of tube formation in HUVEC cells incubated for 6 hrs by inverted microscopic analysis; format: functional, cell-based; settings: Homo sapiens, dose 50-100 nM
HT-29 [3] = assay: Antitumor activity against human HT-29 cells xenografted in BALB/c mouse assessed as tumor growth inhibition at 10 mg/kg, iv measured after 21 days; format: functional; settings: HT-29, 504 h, time 21 day, read-out: TGI
HT-29 [4] = assay: Antitumor activity against human HT-29 cells xenografted in BALB/c mouse assessed as tumor growth inhibition at 40 mg/kg, iv measured after 21 days; format: functional; settings: HT-29, 504 h, time 21 day, read-out: TGI

With `COc1ccc(N(C)c2nc(/C=C/c3cccc(OC)c3)nc3ccccc23)cc1` the Activity (Tubulin (Homo sapiens)) was “Dose-dependent-effect”, the inhibition (HT-29 [1]) was “Dose-dependent-effect” and the Activity (HT-29 [2]) was “Active”. The inhibition (HUVEC) was “Dose-dependent-effect”, the inhibition in vivo at 10 mg/kg (HT-29 [3]) was 53% and the inhibition in vivo at 40 mg/kg (HT-29 [4]) was 74.2%.
